tested on: not given; assay: not given; details: not given

Row | melting point [°C] | Compound
1 | 160 to 162 | Cc1c(F)c(Cl)cc(F)c1-c1cc(N)c(Cl)c(C(=O)O)n1 [Compound 92, 4-amino-3-chloro-6-(4-chloro-3,6-difluoro-2-methylphenyl)picolinic acid]

tested on: Key Grass and Sedge Weeds as well as Grass Crops; assay: Post-Emergent Test II (Table 6); assay type: in vivo; details: post-emergence, 336 h, CYPSS, 70 g ai/ha, 14 days after application, read-out: Visual Growth Reduction (%) 14 Days After Application CYPSS
How it was run: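 Growth stage at treatment: first or second true leaf. Application: compound in acetone/DMSO diluted into an adjuvant-containing aqueous mix, sprayed at 187 L/ha at several rates. Assessment: visual 0-100% injury at 14 days against untreated plants.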

Row | Compound | pest or weed control at 70 g/ha [%]
2 | Cc1c(F)c(Cl)cc(F)c1-c1cc(N)c(Cl)c(C(=O)O)n1 [Compound 92, 4-amino-3-chloro-6-(4-chloro-3,6-difluoro-2-methylphenyl)picolinic acid] | 0 to 29

same assay, conditions: post-emergence, 336 h, CYPSS, 140 g ai/ha, 14 days after application, read-out: Visual Growth Reduction (%) 14 Days After Application CYPSS

Row | Compound | pest or weed control at 140 g/ha [%]
3 | Cc1c(F)c(Cl)cc(F)c1-c1cc(N)c(Cl)c(C(=O)O)n1 [Compound 92, 4-amino-3-chloro-6-(4-chloro-3,6-difluoro-2-methylphenyl)picolinic acid] | 0 to 29

same assay, conditions: post-emergence, 336 h, DIGSA: crabgrass (Digitaria sanguinalis), 70 g ai/ha, 14 days after application, read-out: Visual Growth Reduction (%) 14 Days After Application DIGSA

Row | Compound | pest or weed control at 70 g/ha [%]
4 | Cc1c(F)c(Cl)cc(F)c1-c1cc(N)c(Cl)c(C(=O)O)n1 [Compound 92, 4-amino-3-chloro-6-(4-chloro-3,6-difluoro-2-methylphenyl)picolinic acid] | 0 to 29

same assay, conditions: post-emergence, 336 h, DIGSA: crabgrass (Digitaria sanguinalis), 140 g ai/ha, 14 days after application, read-out: Visual Growth Reduction (%) 14 Days After Application DIGSA

Row | Compound | pest or weed control at 140 g/ha [%]
5 | Cc1c(F)c(Cl)cc(F)c1-c1cc(N)c(Cl)c(C(=O)O)n1 [Compound 92, 4-amino-3-chloro-6-(4-chloro-3,6-difluoro-2-methylphenyl)picolinic acid] | 0 to 29

same assay, conditions: post-emergence, 336 h, ECHSS, 70 g ai/ha, 14 days after application, read-out: Visual Growth Reduction (%) 14 Days After Application ECHSS

Row | Compound | pest or weed control at 70 g/ha [%]
6 | Cc1c(F)c(Cl)cc(F)c1-c1cc(N)c(Cl)c(C(=O)O)n1 [Compound 92, 4-amino-3-chloro-6-(4-chloro-3,6-difluoro-2-methylphenyl)picolinic acid] | 0 to 29

same assay, conditions: post-emergence, 336 h, ECHSS, 140 g ai/ha, 14 days after application, read-out: Visual Growth Reduction (%) 14 Days After Application ECHSS

Row | Compound | pest or weed control at 140 g/ha [%]
7 | Cc1c(F)c(Cl)cc(F)c1-c1cc(N)c(Cl)c(C(=O)O)n1 [Compound 92, 4-amino-3-chloro-6-(4-chloro-3,6-difluoro-2-methylphenyl)picolinic acid] | 0 to 29

same assay, conditions: post-emergence, 336 h, ORYSS (crop), 70 g ai/ha, 14 days after application, read-out: Visual Growth Reduction (%) 14 Days After Application ORYSS

Row | Compound | pest or weed control at 70 g/ha [%]
8 | Cc1c(F)c(Cl)cc(F)c1-c1cc(N)c(Cl)c(C(=O)O)n1 [Compound 92, 4-amino-3-chloro-6-(4-chloro-3,6-difluoro-2-methylphenyl)picolinic acid] | 0 to 29

same assay, conditions: post-emergence, 336 h, ORYSS (crop), 140 g ai/ha, 14 days after application, read-out: Visual Growth Reduction (%) 14 Days After Application ORYSS

Row | Compound | pest or weed control at 140 g/ha [%]
9 | Cc1c(F)c(Cl)cc(F)c1-c1cc(N)c(Cl)c(C(=O)O)n1 [Compound 92, 4-amino-3-chloro-6-(4-chloro-3,6-difluoro-2-methylphenyl)picolinic acid] | 0 to 29

same assay, conditions: post-emergence, 336 h, SETFA: giant foxtail (Setaria faberi), 70 g ai/ha, 14 days after application, read-out: Visual Growth Reduction (%) 14 Days After Application SETFA

Row | Compound | pest or weed control at 70 g/ha [%]
10 | Cc1c(F)c(Cl)cc(F)c1-c1cc(N)c(Cl)c(C(=O)O)n1 [Compound 92, 4-amino-3-chloro-6-(4-chloro-3,6-difluoro-2-methylphenyl)picolinic acid] | 0 to 29

same assay, conditions: post-emergence, 336 h, SETFA: giant foxtail (Setaria faberi), 140 g ai/ha, 14 days after application, read-out: Visual Growth Reduction (%) 14 Days After Application SETFA

Row | Compound | pest or weed control at 140 g/ha [%]
11 | Cc1c(F)c(Cl)cc(F)c1-c1cc(N)c(Cl)c(C(=O)O)n1 [Compound 92, 4-amino-3-chloro-6-(4-chloro-3,6-difluoro-2-methylphenyl)picolinic acid] | 0 to 29

same assay, conditions: post-emergence, 336 h, SORVU: grain sorghum (Sorghum vulgare), 70 g ai/ha, 14 days after application, read-out: Visual Growth Reduction (%) 14 Days After Application SORVU

Row | Compound | pest or weed control at 70 g/ha [%]
12 | Cc1c(F)c(Cl)cc(F)c1-c1cc(N)c(Cl)c(C(=O)O)n1 [Compound 92, 4-amino-3-chloro-6-(4-chloro-3,6-difluoro-2-methylphenyl)picolinic acid] | 0 to 29

same assay, conditions: post-emergence, 336 h, SORVU: grain sorghum (Sorghum vulgare), 140 g ai/ha, 14 days after application, read-out: Visual Growth Reduction (%) 14 Days After Application SORVU

Row | Compound | pest or weed control at 140 g/ha [%]
13 | Cc1c(F)c(Cl)cc(F)c1-c1cc(N)c(Cl)c(C(=O)O)n1 [Compound 92, 4-amino-3-chloro-6-(4-chloro-3,6-difluoro-2-methylphenyl)picolinic acid] | 0 to 29

same assay, conditions: post-emergence, 336 h, TRZSS (crop), 70 g ai/ha, 14 days after application, read-out: Visual Growth Reduction (%) 14 Days After Application TRZSS

Row | Compound | pest or weed control at 70 g/ha [%]
14 | Cc1c(F)c(Cl)cc(F)c1-c1cc(N)c(Cl)c(C(=O)O)n1 [Compound 92, 4-amino-3-chloro-6-(4-chloro-3,6-difluoro-2-methylphenyl)picolinic acid] | 30 to 44

same assay, conditions: post-emergence, 336 h, TRZSS (crop), 140 g ai/ha, 14 days after application, read-out: Visual Growth Reduction (%) 14 Days After Application TRZSS

Row | Compound | pest or weed control at 140 g/ha [%]
15 | Cc1c(F)c(Cl)cc(F)c1-c1cc(N)c(Cl)c(C(=O)O)n1 [Compound 92, 4-amino-3-chloro-6-(4-chloro-3,6-difluoro-2-methylphenyl)picolinic acid] | 60 to 74

Reference: patent US10765114B2, “4-amino-6-(pyridyl and 2-substitutedphenyl)-picolinates and 6-amino-2-(pyridyl and 2-substitutedphenyl)-pyrimidine-4-carboxylates and their use as herbicides” (Dow AgroSciences LLC, priority 2013, dated 2020)
